Measurements as given in PubChem BioAssay (NCI).
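96-well plates; 48 h exposure; 5 concentrations. Endpoints by linear interpolation between flanking doses. Not reached: highest tested concentration assigned. GI50 = concentration required for 50% inhibition of growth. TGI marks complete inhibition of growth.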

What follows are compounds tested on K-562 leukemia (assay: NCI anticancer screen, dose series, 48 h).

SMILES	GI50 [µM]	TGI [µM]
O=S(=O)(NC1=NCCN1C(=S)SN1CCn2c1nsc2=S)c1ccc(OC(F)(F)F)cc1	4.02	19.8
CCOC(=O)N1CCC2(CC1)C[C@](C)(C(C)=O)C(C)O2 (stereo partly drawn)		> 100
COc1cc2c(cc1OC)C(c1ccccc1CCCCl)=NCC2		> 100
COc1cc([C@@H]2c3cc4c(cc3[C@@H](Nc3ccc([N+](=O)[O-])cc3C(=O)c3ccccc3)[C@H]3COC(=O)[C@H]23)OCO4)cc(OC)c1OC		> 100
NC(Cc1c[nH]c2c(O)cccc12)C(=O)O (stereo not drawn)	> 100	> 100

The compounds below were run on RXF 393 renal (assay: NCI anticancer screen, dose series, 48 h).

SMILES	GI50 [nM]	TGI [µM]
O=S(=O)(NC1=NCCN1C(=S)SN1CCn2c1nsc2=S)c1ccc(OC(F)(F)F)cc1	2770	8.1
COc1cc2c(cc1OC)C(c1ccccc1CCCCl)=NCC2		> 100
COc1cc([C@@H]2c3cc4c(cc3[C@@H](Nc3ccc([N+](=O)[O-])cc3C(=O)c3ccccc3)[C@H]3COC(=O)[C@H]23)OCO4)cc(OC)c1OC		> 100

Each compound was assayed on SR leukemia (assay: NCI anticancer screen, dose series, 48 h).

SMILES	GI50 [nM]	TGI [µM]
O=S(=O)(NC1=NCCN1C(=S)SN1CCn2c1nsc2=S)c1ccc(OC(F)(F)F)cc1	1740	5.76
CCOC(=O)N1CCC2(CC1)C[C@](C)(C(C)=O)C(C)O2 (stereo partly drawn)		> 100
COc1cc([C@@H]2c3cc4c(cc3[C@@H](Nc3ccc([N+](=O)[O-])cc3C(=O)c3ccccc3)[C@H]3COC(=O)[C@H]23)OCO4)cc(OC)c1OC		> 100
NC(Cc1c[nH]c2c(O)cccc12)C(=O)O (stereo not drawn)	> 100000	> 100

The compounds below were run on NCI-H460 lung (assay: NCI anticancer screen, dose series, 48 h).

SMILES	GI50 [µM]	TGI [µM]
O=S(=O)(NC1=NCCN1C(=S)SN1CCn2c1nsc2=S)c1ccc(OC(F)(F)F)cc1	13.1	48.5
CCOC(=O)N1CCC2(CC1)C[C@](C)(C(C)=O)C(C)O2 (stereo partly drawn)		> 100
COc1cc2c(cc1OC)C(c1ccccc1CCCCl)=NCC2		> 100
NC(Cc1c[nH]c2c(O)cccc12)C(=O)O (stereo not drawn)	> 100	> 100

These compounds were tested on HS 578T breast (assay: NCI anticancer screen, dose series, 48 h).

SMILES	GI50 [µM]	TGI [µM]
O=S(=O)(NC1=NCCN1C(=S)SN1CCn2c1nsc2=S)c1ccc(OC(F)(F)F)cc1	4.83	33.1
CCOC(=O)N1CCC2(CC1)C[C@](C)(C(C)=O)C(C)O2 (stereo partly drawn)		> 100
COc1cc2c(cc1OC)C(c1ccccc1CCCCl)=NCC2		> 100
COc1cc([C@@H]2c3cc4c(cc3[C@@H](Nc3ccc([N+](=O)[O-])cc3C(=O)c3ccccc3)[C@H]3COC(=O)[C@H]23)OCO4)cc(OC)c1OC		> 100

The compounds below were run on NCI-H522 lung (assay: NCI anticancer screen, dose series, 48 h).

SMILES	GI50 [nM]	TGI [µM]
O=S(=O)(NC1=NCCN1C(=S)SN1CCn2c1nsc2=S)c1ccc(OC(F)(F)F)cc1	2920	9.8
CCOC(=O)N1CCC2(CC1)C[C@](C)(C(C)=O)C(C)O2 (stereo partly drawn)		> 100
COc1cc2c(cc1OC)C(c1ccccc1CCCCl)=NCC2		> 100
COc1cc([C@@H]2c3cc4c(cc3[C@@H](Nc3ccc([N+](=O)[O-])cc3C(=O)c3ccccc3)[C@H]3COC(=O)[C@H]23)OCO4)cc(OC)c1OC		> 51
NC(Cc1c[nH]c2c(O)cccc12)C(=O)O (stereo not drawn)	> 100000	> 100

These compounds were tested on SW-620 colon (assay: NCI anticancer screen, dose series, 48 h).

SMILES	GI50 [µM]	TGI [µM]
O=S(=O)(NC1=NCCN1C(=S)SN1CCn2c1nsc2=S)c1ccc(OC(F)(F)F)cc1	9.62	24.3
CCOC(=O)N1CCC2(CC1)C[C@](C)(C(C)=O)C(C)O2 (stereo partly drawn)		> 100
COc1cc2c(cc1OC)C(c1ccccc1CCCCl)=NCC2		> 100
COc1cc([C@@H]2c3cc4c(cc3[C@@H](Nc3ccc([N+](=O)[O-])cc3C(=O)c3ccccc3)[C@H]3COC(=O)[C@H]23)OCO4)cc(OC)c1OC		> 100
NC(Cc1c[nH]c2c(O)cccc12)C(=O)O (stereo not drawn)	> 100	> 100

Each compound was assayed on T-47D breast (assay: NCI anticancer screen, dose series, 48 h).

SMILES	GI50 [µM]	TGI [µM]
O=S(=O)(NC1=NCCN1C(=S)SN1CCn2c1nsc2=S)c1ccc(OC(F)(F)F)cc1	13.9	44.4
COc1cc2c(cc1OC)C(c1ccccc1CCCCl)=NCC2		> 100
COc1cc([C@@H]2c3cc4c(cc3[C@@H](Nc3ccc([N+](=O)[O-])cc3C(=O)c3ccccc3)[C@H]3COC(=O)[C@H]23)OCO4)cc(OC)c1OC		> 100
NC(Cc1c[nH]c2c(O)cccc12)C(=O)O (stereo not drawn)	> 100	> 100
